Experimental data published in PubChem BioAssay (NCI).
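These data come from cells grown in 96-well plates and exposed to compound for 48 hours at five concentrations. TGI is the concentration that stops growth completely.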

Experiments:
Test in all cases: NCI-60 cell line screen, 48 h
RXF 393 renal = test system: RXF 393 renal
SN12C renal = test system: SN12C renal
XF 498 CNS = test system: XF 498 CNS
CAKI-1 renal = test system: CAKI-1 renal
SF-268 CNS = test system: SF-268 CNS
LOX IMVI melanoma = test system: LOX IMVI melanoma
UO-31 renal = test system: UO-31 renal
UACC-257 melanoma = test system: UACC-257 melanoma
U251 CNS = test system: U251 CNS
K-562 leukemia = test system: K-562 leukemia
NCI-H226 lung = test system: NCI-H226 lung
T-47D breast = test system: T-47D breast
COLO 205 colon = test system: COLO 205 colon
IGROV1 ovarian = test system: IGROV1 ovarian
SW-620 colon = test system: SW-620 colon
OVCAR-4 ovarian = test system: OVCAR-4 ovarian
A498 renal = test system: A498 renal
786-0 renal = test system: 786-0 renal
SK-OV-3 ovarian = test system: SK-OV-3 ovarian
MCF7 breast = test system: MCF7 breast
SK-MEL-5 melanoma = test system: SK-MEL-5 melanoma
SF-295 CNS = test system: SF-295 CNS
SR leukemia = test system: SR leukemia
HOP-92 NSCLC = test system: HOP-92 NSCLC
BT-549 breast = test system: BT-549 breast
M14 melanoma = test system: M14 melanoma
RPMI-8226 leukemia = test system: RPMI-8226 leukemia
SNB-75 CNS = test system: SNB-75 CNS
DU-145 prostate = test system: DU-145 prostate
NCI-H522 lung = test system: NCI-H522 lung
NCI-H460 lung = test system: NCI-H460 lung
HT29 colon = test system: HT29 colon
OVCAR-8 ovarian = test system: OVCAR-8 ovarian
ACHN renal = test system: ACHN renal
DMS 273 small cell lung = test system: DMS 273 small cell lung
KM20L2 colon = test system: KM20L2 colon
NCI/ADR-RES ovarian = test system: NCI/ADR-RES ovarian
SK-MEL-2 melanoma = test system: SK-MEL-2 melanoma
A549 NSCLC = test system: A549 NSCLC
MDA-MB-231 breast = test system: MDA-MB-231 breast
PC-3 prostate = test system: PC-3 prostate
OVCAR-3 ovarian = test system: OVCAR-3 ovarian
SNB-78 CNS = test system: SNB-78 CNS
HL-60(TB) leukemia = test system: HL-60(TB) leukemia
HCC-2998 colon = test system: HCC-2998 colon
OVCAR-5 ovarian = test system: OVCAR-5 ovarian
HOP-62 NSCLC = test system: HOP-62 NSCLC
HCT-116 colon = test system: HCT-116 colon
MDA-N = test system: MDA-N
DLD-1 colon = test system: DLD-1 colon
HOP-18 NSCLC = test system: HOP-18 NSCLC
NCI-H23 lung = test system: NCI-H23 lung
CCRF-CEM leukemia = test system: CCRF-CEM leukemia
MDA-MB-435 = test system: MDA-MB-435
DMS 114 small cell lung = test system: DMS 114 small cell lung
EKVX NSCLC = test system: EKVX NSCLC
HS 578T breast = test system: HS 578T breast
KM12 colon = test system: KM12 colon
TK-10 renal = test system: TK-10 renal
SNB-19 CNS = test system: SNB-19 CNS
SK-MEL-28 melanoma = test system: SK-MEL-28 melanoma
HCT-15 colon = test system: HCT-15 colon
UACC-62 melanoma = test system: UACC-62 melanoma
M19-MEL melanoma = test system: M19-MEL melanoma
MALME-3M melanoma = test system: MALME-3M melanoma
SF-539 CNS = test system: SF-539 CNS
LXFL 529 NSCLC = test system: LXFL 529 NSCLC
MOLT-4 leukemia = test system: MOLT-4 leukemia

Cn1c2ccccc2c2ccc3c(c21)C(=O)C=CC3=O
TGI (RXF 393 renal): 5.96 µM | TGI (SN12C renal): 26.5 µM | TGI (XF 498 CNS): 4.88 µM | TGI (CAKI-1 renal): 11.8 µM | TGI (SF-268 CNS): 30.5 µM | TGI (LOX IMVI melanoma): 10.5 µM | TGI (UO-31 renal): 13.7 µM | TGI (UACC-257 melanoma): 23.1 µM | TGI (U251 CNS): 25.1 µM | TGI (K-562 leukemia): > 45.1 µM | TGI (NCI-H226 lung): 51 µM | TGI (T-47D breast): 10.7 µM | TGI (COLO 205 colon): 6.9 µM | TGI (IGROV1 ovarian): 29.9 µM | TGI (SW-620 colon): 4.46 µM | TGI (OVCAR-4 ovarian): 4.08 µM | TGI (A498 renal): > 59.4 µM | TGI (786-0 renal): 9.2 µM | TGI (SK-OV-3 ovarian): 33.2 µM | TGI (MCF7 breast): 8.96 µM | TGI (SK-MEL-5 melanoma): 31 µM | TGI (SF-295 CNS): 42.1 µM | TGI (SR leukemia): 15.9 µM | TGI (HOP-92 NSCLC): 4.66 µM | TGI (BT-549 breast): 18.9 µM | TGI (M14 melanoma): 22.1 µM | TGI (RPMI-8226 leukemia): 14.6 µM | TGI (SNB-75 CNS): 32.5 µM | TGI (DU-145 prostate): 29.5 µM | TGI (NCI-H522 lung): 6.36 µM | TGI (NCI-H460 lung): 46.4 µM | TGI (HT29 colon): 26 µM | TGI (OVCAR-8 ovarian): 31.1 µM | TGI (ACHN renal): 8.33 µM | TGI (DMS 273 small cell lung): 25.8 µM | TGI (KM20L2 colon): 33.9 µM | TGI (NCI/ADR-RES ovarian): 14.4 µM | TGI (SK-MEL-2 melanoma): 29.9 µM | TGI (A549 NSCLC): 61 µM | TGI (MDA-MB-231 breast): 18.7 µM | TGI (PC-3 prostate): 12.2 µM | TGI (OVCAR-3 ovarian): 20.9 µM | TGI (SNB-78 CNS): 48.4 µM | TGI (HL-60(TB) leukemia): 11.8 µM | TGI (HCC-2998 colon): 15.1 µM | TGI (OVCAR-5 ovarian): 28.3 µM | TGI (HOP-62 NSCLC): 48 µM | TGI (HCT-116 colon): 10.9 µM | TGI (MDA-N): 19.3 µM | TGI (DLD-1 colon): 6.02 µM | TGI (HOP-18 NSCLC): 5.58 µM | TGI (NCI-H23 lung): 27.3 µM | TGI (CCRF-CEM leukemia): 14.5 µM | TGI (MDA-MB-435): 10.9 µM | TGI (DMS 114 small cell lung): 21.5 µM | TGI (EKVX NSCLC): 38.6 µM | TGI (HS 578T breast): 58.5 µM | TGI (KM12 colon): 60.7 µM | TGI (TK-10 renal): 12.2 µM | TGI (SNB-19 CNS): 46.4 µM | TGI (SK-MEL-28 melanoma): 25.7 µM | TGI (HCT-15 colon): 12.1 µM | TGI (UACC-62 melanoma): 26.7 µM | TGI (M19-MEL melanoma): 24.5 µM | TGI (MALME-3M melanoma): 12.2 µM | TGI (SF-539 CNS): 26.3 µM | TGI (LXFL 529 NSCLC): 8.26 µM

COc1cc2c(cc1OC)C(Cc1ccc(Oc3cc(CC4c5cc(OC)c(OC)cc5CCN4C)ccc3O)cc1)N(C)CC2 (stereo not given)
TGI (RXF 393 renal): 29.4 µM | TGI (SN12C renal): > 100 µM | TGI (XF 498 CNS): 34.2 µM | TGI (CAKI-1 renal): 73.3 µM | TGI (SF-268 CNS): 28.7 µM | TGI (LOX IMVI melanoma): 32.6 µM | TGI (UO-31 renal): 28.3 µM | TGI (UACC-257 melanoma): 32 µM | TGI (U251 CNS): 38.2 µM | TGI (K-562 leukemia): 29.3 µM | TGI (NCI-H226 lung): 57.5 µM | TGI (COLO 205 colon): 23.8 µM | TGI (IGROV1 ovarian): 56.5 µM | TGI (SW-620 colon): 35.5 µM | TGI (OVCAR-4 ovarian): 54.7 µM | TGI (A498 renal): 49.1 µM | TGI (786-0 renal): 27.1 µM | TGI (SK-OV-3 ovarian): > 100 µM | TGI (SK-MEL-5 melanoma): 29.1 µM | TGI (MOLT-4 leukemia): 41.5 µM | TGI (SF-295 CNS): 47.1 µM | TGI (SR leukemia): 24.1 µM | TGI (HOP-92 NSCLC): 55.9 µM | TGI (M14 melanoma): 28.7 µM | TGI (RPMI-8226 leukemia): 51.4 µM | TGI (SNB-75 CNS): 31.6 µM | TGI (NCI-H522 lung): 25 µM | TGI (NCI-H460 lung): 80.4 µM | TGI (HT29 colon): 28.9 µM | TGI (OVCAR-8 ovarian): > 100 µM | TGI (ACHN renal): 35.2 µM | TGI (DMS 273 small cell lung): 47.8 µM | TGI (KM20L2 colon): 34.3 µM | TGI (SK-MEL-2 melanoma): 31 µM | TGI (A549 NSCLC): > 100 µM | TGI (OVCAR-3 ovarian): 50.1 µM | TGI (SNB-78 CNS): > 100 µM | TGI (HL-60(TB) leukemia): 30.4 µM | TGI (HCC-2998 colon): 28.1 µM | TGI (OVCAR-5 ovarian): > 100 µM | TGI (HOP-62 NSCLC): 57.4 µM | TGI (HCT-116 colon): 22 µM | TGI (DLD-1 colon): 38.7 µM | TGI (HOP-18 NSCLC): 76.6 µM | TGI (NCI-H23 lung): > 100 µM | TGI (CCRF-CEM leukemia): 58.4 µM | TGI (DMS 114 small cell lung): 30.9 µM | TGI (EKVX NSCLC): > 100 µM | TGI (KM12 colon): 70.7 µM | TGI (TK-10 renal): > 100 µM | TGI (SNB-19 CNS): > 100 µM | TGI (SK-MEL-28 melanoma): 30.2 µM | TGI (HCT-15 colon): 32 µM | TGI (UACC-62 melanoma): 32.4 µM | TGI (M19-MEL melanoma): 39 µM | TGI (MALME-3M melanoma): 34.7 µM | TGI (SF-539 CNS): 30.6 µM | TGI (LXFL 529 NSCLC): 28.5 µM
